In patent publication US20080194585A1, “Fungicidal Pyrazine Derivatives” (priority 2005, published 2008):
Marks after values point to notes of the source that are not given here.

Legend:
[1] = test system: Septoria nodorum; assay: Test H: wheat glum blotch, preventive spray on wheat seedlings
Experimental: (the causal agent of wheat glum blotch) and incubated in a saturated atmosphere at 20° C. for 48 h, and then moved to a growth chamber at 22° C. for 5 days, after which disease ratings were made.

[2] = test system: Phytophthora infestans; assay: whole plant or invertebrate; type: in vivo
[3] = test system: Botrytis cinerea; assay: Test E: tomato botrytis, preventive spray on tomato seedlings
[4] = test system: Plasmopara viticola; assay: Test D: grape downy mildew, spray after inoculation of grape seedlings; type: in vivo
Text: Upon removal, disease ratings were made. […] A dash (-) indicates no test results.

[5] = test system: Pythium aphanidermatum; assay: Test A: bluegrass pythium blight, preventive spray on bluegrass seedlings
[6] = test system: Sclerotinia sclerotiorum; assay: Test C: cucumber white mold, preventive spray on cucumber seedlings
[7] = test system: Erysiphe graminis f. sp. tritici; assay: Test L: wheat powdery mildew, preventive spray on wheat seedlings
[8] = test system: Puccinia recondita f. sp. tritici; assay: Test K: wheat leaf rust, preventive spray on wheat seedlings
[9] = test system: Septoria tritici; assay: Test J: wheat leaf blotch, preventive spray on wheat seedlings; type: in vivo
Text: A dash (-) indicates no test results.

[10] = test system: Rhizoctonia oryzae; assay: Test G: turf brown patch, preventive spray on creeping bent grass seedlings
Experimental: (the causal agent of turf brown patch) and incubated in a saturated atmosphere at 27° C. for 24 h, and then moved to a growth chamber at 27° C. for 5 days, after which disease ratings were made.

[11] = test system: Colletotrichum orbiculare; assay: Test B: cucumber Colletotrichum anthracnose, preventive spray on cucumber seedlings

Compound | Test H disease control rating ([1]; 40 ppm (*)) | Test F disease control rating ([2]; 40 ppm (*)) | Test E disease control rating ([3]; 40 ppm (*)) | Test D disease control rating ([4]; 40 ppm (*)) | Test A disease control rating ([5]; 40 ppm (*)) | Test C disease control rating ([6]; 40 ppm (*)) | Test L disease control rating ([7]; 40 ppm (*)) | Test K disease control rating ([8]; 40 ppm (*)) | Test J disease control rating ([9]; 40 ppm (*)) | Test H disease control rating ([1]; 200 ppm) [%] | Test F disease control rating ([2]; 200 ppm) [%] | Test E disease control rating ([3]; 200 ppm) [%] | Test D disease control rating ([4]; 200 ppm) [%] | Test A disease control rating ([5]; 200 ppm) [%] | Test C disease control rating ([6]; 200 ppm) [%] | Test L disease control rating ([7]; 200 ppm) [%] | Test K disease control rating ([8]; 200 ppm) [%] | Test J disease control rating ([9]; 200 ppm) [%] | Test G disease control rating ([10]; 200 ppm) [%] | Test B disease control rating ([11]; 200 ppm) [%] | also measured
CC(CS(C)(=O)=O)n1c(-c2c(F)cccc2F)c(Cl)nc(-n2cccn2)c1=O (stereo not shown) [compound 200] | 0* % | 0* % | 0* % | 8* % | 0* % | 0* % | 0* % | 0* % | 9* % | – | – | – | – | – | – | – | – | – | – | – | Test G disease control rating ([10]; 40 ppm (*)): 0* %; Test B disease control rating ([11]; 40 ppm (*)): 0* %
CC(CS(C)(=O)=O)n1c(-c2c(F)cccc2F)c(Cl)nc(-n2cncn2)c1=O (stereo not shown) [compound 201] | 0* % | 0* % | 0* % | 0* % | 0* % | 0* % | 0* % | 0* % | 0* % | – | – | – | – | – | – | – | – | – | – | – | Test G disease control rating ([10]; 40 ppm (*)): 0* %; Test B disease control rating ([11]; 40 ppm (*)): 0* %
Cc1cccc(C)c1-c1c(Cl)nc(-n2cccn2)c(=O)n1CC(C)C [compound 202] | – | – | – | – | – | – | – | – | – | 99 | 0 | 100 | 12 | 45 | 0 | 99 | 100 | 100 | 99 | 93 | –
CC(C)Cn1c(C(C)(C)C)c(Cl)nc(-n2cccn2)c1=O [compound 203] | – | – | – | – | – | – | – | – | – | 0 | 0 | 0 | 12 | 74 | 0 | 0 | 0 | 0 | 0 | 0 | –
CC(C)Cn1c(C(C)C)c(Cl)nc(-n2cccn2)c1=O [compound 204] | – | – | – | – | – | – | – | – | – | 0 | 0 | 98 | 12 | 0 | 0 | 99 | 98 | 90 | 95 | 0 | –
Cc1cccc(C)c1-c1c(Cl)nc(-n2cncn2)c(=O)n1CC(C)C [compound 205] | – | – | – | – | – | – | – | – | – | 0 | 0 | 100 | 12 | 0 | 0 | 81 | 97 | 100 | 85 | 0 | –
CC(C)Cn1c(C(C)(C)C)c(Cl)nc(-n2cncn2)c1=O [compound 206] | – | – | – | – | – | – | – | – | – | 0 | 0 | 0 | 8 | 0 | 0 | 56 | 0 | 3 | 0 | 0 | –
CC(C)Cn1c(C(C)C)c(Cl)nc(-n2cncn2)c1=O [compound 207] | – | – | – | – | – | – | – | – | – | 0 | 0 | 50 | 8 | 0 | 0 | 95 | 0 | 70 | 47 | 0 | –
Cc1ccnc(-c2nc(Cl)c(-c3c(F)cccc3F)n(CC(C)C)c2=O)c1 [compound 208] | – | – | – | – | – | – | – | – | – | 69 | 0 | 92 | 12 | 0 | 0 | 0 | 88 | 100 | 0 | 46 | –
Cc1cccnc1-c1nc(Cl)c(-c2c(F)cccc2F)n(CC(C)C)c1=O [compound 210] | – | – | – | – | – | – | – | – | – | 0 | 0 | 0 | 16 | 0 | 0 | 0 | 0 | 1 | 0 | 0 | –
COC=C(C)n1c(-c2c(F)cccc2F)c(Cl)nc(-n2cccn2)c1=O [compound 211] | 0* % | 0* % | 0* % | 4* % | 0* % | 0* % | 0* % | 27* % | 25* % | – | – | – | – | – | – | – | – | – | – | – | Test G disease control rating ([10]; 40 ppm (*)): 0* %; Test B disease control rating ([11]; 40 ppm (*)): 0* %
COC=C(C)n1c(-c2c(F)cccc2F)c(Cl)nc(-n2cncn2)c1=O [compound 212] | 0* % | 0* % | 0* % | 8* % | 0* % | 0* % | 0* % | 0* % | 0* % | – | – | – | – | – | – | – | – | – | – | – | Test G disease control rating ([10]; 40 ppm (*)): 0* %; Test B disease control rating ([11]; 40 ppm (*)): 0* %
CC(CO)n1c(-c2c(F)cccc2F)c(Cl)nc(-n2cccn2)c1=O (stereo not shown) [compound 213] | 0* % | 0* % | 41* % | 32* % | 0* % | 0* % | 0* % | 92* % | 0* % | – | – | – | – | – | – | – | – | – | – | – | Test G disease control rating ([10]; 40 ppm (*)): 0* %; Test B disease control rating ([11]; 40 ppm (*)): 0* %
CC(CCl)n1c(-c2c(F)cccc2F)c(Cl)nc(-n2cncn2)c1=O (stereo not shown) [compound 214] | 0* % | 0* % | 0* % | 12* % | 0* % | 0* % | 0* % | 69* % | 9* % | – | – | – | – | – | – | – | – | – | – | – | Test G disease control rating ([10]; 40 ppm (*)): 0* %; Test B disease control rating ([11]; 40 ppm (*)): 0* %
